# Reference: US20120157356A1, “Hydraulic fracturing with slick water from dry blends” (priority 2010, published 2012)
# What was measured:
# [1] = Flowability: drainage time through a wide-mouth funnel; conditions: dry powder flowability
# Text: Also, the powder must be flowable (low angle of repose), with the flow measured as the drainage time through a wide-mouth funnel.
# Rats = conditions: no unit in table, b36: normally expressed as mg per kilogram of body mass; cited from earlier work
# [2] = Apparent density by volume increase of a dispersion of known weight of solid in mineral oil; format: physicochemical
# Text: If batch mix operations (illustrated in FIG. 1) are used so that time of mixing is not critical, particle size of the components used in the blend can be as large as 18 mesh (1.0 mm). However, if the mixing is to be based on a continuous mix process (FIG. 2), timing becomes more critical, requiring that the polymeric components disperse and begin hydration prior to reaching the well head. In this case, the particle size of the components preferably is 40 mesh (0.420 mm) or smaller, but more preferably 80 mesh (0.177 mm) or smaller. Also, it is preferred that the particle size and the apparent density of all the components be about the same (to minimize segregation during shipping and storage). Apparent densities of selected commercial components, as measured by measuring volume increase of a dispersion of a known weight of solid in mineral oil, are shown in Table 2. A dry blend preferably will be formed of components for each function in a fracturing fluid having apparent densities and particle sizes matched to the best extent possible. Inert solids, such as fumed silica, may be combined with active ingredients to form solid particles having a preferred density.
SMILES,Time in Minutes (drainage time through a wide-mouth funnel) [1] [min],Acute Oral Effect LD50 Rats (Rats),Apparent Density [2] [g/mL]
N.N.O=S(=O)(O)OOS(=O)(=O)O [Ammonium Persulfate],0.2,–,–
C[N+](C)(C)CCO.[Cl-] [Choline Chloride],–,"3,400",–
CN1CSC(=S)N(C)C1 [Dazomet 99%],–,–,1.111
"CN1CSC(=S)N(C)C1 [Dazomet, tetrahydro-3,5-dimethyl-2H-1,3,5-thiadiazine-2-thione]",–,519,–
Cc1cc(O)cc(C)c1Cl [PCMX],–,"3,830",–
[Cl-].[K+] [Potassium Chloride],0.05,–,–
O=S([O-])O.[Na+] [Sodium Bisulfite],–,"1,131",–
O=C1O[C@H]([C@H](O)CO)C([O-])=C1O.[Na+] [Sodium Erythorbate],–,"5,000",–
O=S([O-])([O-])=S.[Na+].[Na+] [Sodium Thiosulfate],–,"2,890",1.667
C[N+](C)(C)C.[Cl-] [Tetramethylammonium Chloride],–,94,–
